Source: patent publication EP4790063A1, “PEPTIDE HAVING ACTIVITY FOR […] OF MARINE FOULING” (National University Corporation Hokkaido University, priority 2023, dated 2025)
Where two headings read alike, the source gives them in different places.

Experiments:
[1] = system: SF-295 (human glioblastoma cell line); details: Non-Patent Document 4; cited from earlier work
[2] = system: juvenile shellfish of Mediterranean mussel; assay: Evaluation of the antifouling activity and toxicity against the juvenile shellfish of Mediterranean mussel (coated glass beaker, 3 days); type: in vivo, Mytilus galloprovincialis; details: for bottom surface-adhered individuals % / bottom surface-crawling individuals % / overturned individuals or closed shell individuals (unadhered) % / wall surface-adhered individuals % / number of byssal threads on the bottom surface / bottom surface-adhered individuals No. / bottom surface-crawling individuals No. / overturned individuals or closed shell individuals (unadhered) No. / wall surface-adhered individuals No.: three days; for bottom surface-adhered individuals No. / bottom surface-crawling individuals No. / overturned individuals or closed shell individuals (unadhered) No. / wall surface-adhered individuals No.: twelve individuals
Procedure: The sample was dissolved in ethanol to adjust to a concentration of 1 mg/mL. Thirty and 100 µL (30 and 100 µg) of the sample solutions were mixed with the solvent, and the mixtures were brought to a total volume of 500 µL. These mixtures were spread on the bottom surface of the glass beaker of the test container, and the solvent was volatilized by shaking them overnight. As a result, the samples to be evaluated were coated only on the bottom surface of the glass beaker.
A volume of 10 mL of the test seawater was added to the glass beakers of the test containers. The tests were initiated by introducing twelve test individuals into the test seawater in each beaker. The tests ended after three days, and the observation was conducted.
In Table 2, the terms "bottom surface-adhered individuals" and "wall surface-adhered individuals" refer to individuals that are adhered to the bottom surface and wall surface of the beaker, respectively; the term "bottom surface-crawling individuals" refers to individuals that move along the bottom surface without adhering; the term "overturned individuals or closed shell individuals (unadhered)" refers to individuals that are either overturned or in a closed shell without adhering to the bottom surface; and the term "number of byssal threads on the bottom surface" refers to the number of foot threads that are fixed to the bottom surface. In particular, the greater the reduction in the number of byssal threads, the stronger the effect of adhesion prevention.

[3] = system: cypris larvae of the striped barnacle; details: Non-Patent Documents 5 and 7, cited from earlier work
[4] = system: KM20L2 (human colon cancer cell line); details: Non-Patent Document 4; cited from earlier work
[5] = system: NCI-H460 (human lung cancer cell line); details: Non-Patent Document 4; cited from earlier work
[6] = system: cypris larvae of Striped Barnacle; details: Reference value, see Table 1 in non-Patent literature 8; cited from earlier work

Dolastatin 16 [reference compound]
growth-inhibiting effect (in words) [1]: growth-inhibiting effect
bottom surface-adhered individuals % ([2]; 3 µg/mL (30 µg)): 75.0%
bottom surface-crawling individuals % ([2]; 3 µg/mL (30 µg)): 0.0%
overturned individuals or closed shell individuals (unadhered) % ([2]; 3 µg/mL (30 µg)): 0.0%
wall surface-adhered individuals % ([2]; 3 µg/mL (30 µg)): 25.0%
number of byssal threads on the bottom surface ([2]; 3 µg/mL (30 µg), control group 118): 72
bottom surface-adhered individuals No. ([2]; 3 µg/mL (30 µg)): 9
bottom surface-crawling individuals No. ([2]; 3 µg/mL (30 µg)): 0
overturned individuals or closed shell individuals (unadhered) No. ([2]; 3 µg/mL (30 µg)): 0
wall surface-adhered individuals No. ([2]; 3 µg/mL (30 µg)): 3
bottom surface-adhered individuals % ([2]; 10 µg/mL (100 µg)): 100.0%
bottom surface-crawling individuals % ([2]; 10 µg/mL (100 µg)): 0.0%
number of byssal threads on the bottom surface ([2]; 10 µg/mL (100 µg)): 45
overturned individuals or closed shell individuals (unadhered) % ([2]; 10 µg/mL (100 µg)): 0.0%
wall surface-adhered individuals % ([2]; 10 µg/mL (100 µg)): 0.0%
bottom surface-adhered individuals No. ([2]; 10 µg/mL (100 µg)): 12
bottom surface-crawling individuals No. ([2]; 10 µg/mL (100 µg)): 0
overturned individuals or closed shell individuals (unadhered) No. ([2]; 10 µg/mL (100 µg)): 0
wall surface-adhered individuals No. ([2]; 10 µg/mL (100 µg)): 0
antifouling effect (overall determination in words) ([2]; juvenile Mediterranean mussel, 3.0 µg/mL and 10 µg/mL): no antifouling effect
antifouling action (in words) [3]: antifouling actions
antifouling action (in words) ([3]; listed as synthetic Dolastatin 16): equivalent to that of the natural Dolastatin 16
growth-inhibiting effect (in words) [4]: growth-inhibiting effect
growth-inhibiting effect (in words) [5]: growth-inhibiting effect

CC(C)[C@@H](NC(=O)[C@@H]1CCCN1C(=O)[C@@H](NC(=O)OC(C)(C)C)[C@H](C)Cc1ccccc1)[C@@H](C)C(=O)OCc1ccccc1 [Boc-3]
Toxicity 48h LC50 [6]: >10 µg/mL
